Reference: US20100267731A1, “USE OF TRANSFORMING GROWTH FACTOR-B RECEPTOR INHIBITORS TO SUPPRESS OCULAR SCARRING” (Summa Health Systems, LLC, priority 2009, published 2010)

Columns and labels:
[1] = system: New Zealand white rabbits; assay: Post surgery IOP in vivo; set-up: species or system New Zealand white rabbit; settings: rabbit GFS, versus untreated eye
Protocol: IOP for the animals in groups A-D was measured with a TONO-PEN AVIA® (Reichert Ophthalmic Instruments, Depew, N.Y.) by gently touching the cornea of each subject after topical anesthesia was applied with 0.5% proparacaine. The IOP reading was omitted if its confidence interval was less than 95%. An average of three measurements was taken to deduce IOP.

[2] = system: New Zealand white rabbits; assay: Hematoxylin and eosin staining ex vivo of eyes after GFS; format: in vivo; settings: for infiltration of inflammatory cells and scarring in the subconjunctival space: H&E, five days after surgery
Protocol: Five days after surgery, the subjects in Groups A-D were euthanized with Fatal-plus™ (Vortech Pharmaceutical, Dearborn, Mich.) following the manufacturer's instructions. The subject's eyes were enucleated with palpebral margins to keep the conjunctiva epithelium and the subconjunctival space intact. Enucleated eyes were fixed with 10% buffered formalin and 5 μm thick paraffin sections were prepared. The sections were stained with hematoxylin and eosin (H&E) for histological examination, and images were captured using an Olympus DX51 light microscope and DP controller (Olympus, Tokyo, Japan).

[3] = system: subconjunctival tissue fibroblast outgrowth; assay: Subconjunctival tissue fibroblast outgrowth assay ex vivo; format: cell-based, New Zealand white rabbit; settings: for cell outgrowth length, explant from 180° control: 180° from the surgical site (180° control)
Protocol: Under an ophthalmic surgical microscope, subconjunctival tissues were dissected from the surgical site and 180 (6-o'clock position) from the surgical site (the 180° control). Each biopsy specimen (explant) was placed in a 25 cm^2 cell culture flask with complete media. […] The cell outgrowth, in mm, from the edge of each explant was observed, and the length of the outgrowth in 4 quadrants was measured.

[4] = system: cultured rabbit subconjunctival fibroblasts; assay: Toxicity of ALK-5 inhibitors in vitro (cell count by hemocytometer); format: cell-based, New Zealand white rabbit; settings: 10.0 of inhibitor pre-treated one hour, then 2 ng/ml TGF-β2 up to 48 hours
Protocol: Sample fibroblasts were obtained from New Zealand white rabbit eyes. The fibroblasts were derived from the subconjunctival tissues isolated from the eyes of the subjects. The cells were maintained in 25 cm^2 flask using 2 ml of medium composed of Eagle's minimal essential medium, 10% fetal bovine serum, 5% calf serum, essential and nonessential aminoacids, and antibiotics. When the cells reached confluence, they were trypsinized and passaged.
Three samples of the fibroblasts were prepared. The first sample, sample A, included fibroblast cultures treated with 2 ng/ml of TGF-β2 for up to 48 hours. The second sample, sample B, included fibroblast cultures that were untreated. The third sample included fibroblast cultures pre-treated with 2 ml of a medium including […] of ALK-5 inhibitor SB-505124 for one hour, and were additionally treated with additional 2 ng/ml of TGF-β2 (R&D Systems, Minneapolis, Minn.) for up to 48 hours.
The number of cells were counted using a hemocytometer (Hausser Scientific, Horsham, PC) after trypsinization. […] Therefore, in addition to inhibiting the expression of TGF-β2 and mitigating the ocular scarring that may result after GFS by using an ALK-5 type inhibitor, the ALK-5 inhibitor appears to have the added benefit of not destroying healthy cells around the surgical site that prevent post-surgery infection.

[5] = explants taken five days after GFS

CO[C@@]12[C@H](COC(N)=O)C3=C(C(=O)C(C)=C(N)C3=O)N1C[C@@H]1N[C@@H]12 [MMC, mitomycin C]
period IOP of treated eyes was lowered after GFS (in words) ([1]; MMC control): throughout the observation period
infiltration of inflammatory cells and scarring in the subconjunctival space [2]: only a few inflammatory cells and mild scarring
cell outgrowth length, explant from 180° control ([3]; over 18 days): approximately 7 mm

Cc1cccc(-c2[nH]c(C(C)(C)C)nc2-c2ccc3c(c2)OCO3)n1 [SB-505124]
cell number versus samples untreated or treated with TGF-β2 alone [4]: no measurable difference in cell number
time IOP of treated eyes was lowered after GFS ([1]; SB-505124 tablet): up to 10 days
infiltration of inflammatory cells and scarring in the subconjunctival space [2]: only a few inflammatory cells and mild scarring
signs of tissue toxicity ([2]; rabbit, in vivo): no or very low signs of tissue toxicity
subconjunctival blood vessels ([2]; rabbit, in vivo): seen
cell outgrowth length, explant from 180° control ([3]; over 18 days): approximately 7 mm
cell outgrowth from the edge of the subconjunctival tissue explant (qualitative) [3, 5]: robust
difference in cell outgrowth versus untreated group [3, 5]: no significant difference
cell outgrowth length, explant from surgical site ([3]; surgical site, over 18 days): approximately 7 mm
